Assay results as given in the supplement of paper PMC8633005.

What was measured:
Assay in all cases: drug sensitivity score (DSS) (DSS (unitless, 0-50 scale)); higher = more sensitive (stronger viability inhibition); extreme values may be limits of the assay
Settings in all cases: 72 h; culture: 2D
FM-MEL-6 = tested on: FM-MEL-6
Outline: (§1)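 Melanoma cell lines and patient-derived melanoma cultures at 1000–1500 cells per well were exposed in 2D, in 384-well plates, to a 527-compound oncology library at five concentrations spanning a 10,000-fold range for 72 h at 37 °C. CellTiter-Glo luminescence then measured viability. From dose-response curves fitted in the in-house Breeze software, a drug sensitivity score, a modified area-under-curve measure, was obtained.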

WM852 = tested on: WM852
Outline: as §1

SK-MEL-28 = tested on: SK-MEL-28
Outline: as §1

Bowes = tested on: Bowes
Outline: as §1

WM165 = tested on: WM165
Outline: as §1

FM-MEL-2 = tested on: FM-MEL-2
Outline: as §1

FM-MEL-3 = tested on: FM-MEL-3
Outline: as §1

SK-MEL-2 = tested on: SK-MEL-2
Outline: as §1

SMILES	drug sensitivity score (FM-MEL-6)	drug sensitivity score (WM852)	drug sensitivity score (SK-MEL-28)	drug sensitivity score (Bowes)	drug sensitivity score (WM165)	drug sensitivity score (FM-MEL-2)	drug sensitivity score (FM-MEL-3)	drug sensitivity score (SK-MEL-2)
Cc1sc2c(c1C)C(c1ccc(Cl)cc1)=N[C@@H](CC(=O)Nc1ccc(O)cc1)c1nnc(C)n1-2 [Birabresib]	6.7	0	2.9	4.5	12.1	6.2	7.6	0
C[C@@H](Nc1cc(F)cc(F)c1)c1cc(C(=O)N(C)C)cc2c(=O)cc(N3CCOCC3)oc12 [AZD-8186]	2.2	0.8	3.7	2.6	0.4	2.4	0	0
Cn1nccc1Nc1nccc(-c2ccn([C@H](CO)c3ccc(Cl)c(F)c3)c(=O)c2)n1 [Ravoxertinib]	5.6	1.9	13.1	1.7	12	11.9	12.4	5.2
CCCC(CCC)C(=O)O [Valproic acid]	0	0	0	0	0	0.2	0.3	0
CC[C@H](NC(=O)[C@H](C)NC)C(=O)N1C[C@@H](O)C[C@H]1Cc1c(-c2[nH]c3cc(F)ccc3c2C[C@@H]2C[C@H](O)CN2C(=O)[C@H](CC)NC(=O)[C@H](C)NC)[nH]c2cc(F)ccc12 [Birinapant]	3	0	0	0	0	8	1.4	3.9
O=C(CCCCCCNC(=O)c1cnc(N(c2ccccc2)c2ccccc2)nc1)NO [Rocilinostat]	6.6	2.3	3.7	2	5.7	2.8	6.4	3.4
O=C(O)C(=O)O.[NH-][C@@H]1CCCC[C@H]1[NH-].[Pt+2] [Oxaliplatin]	11.7	3.5	7.3	5.8	14.5	4.7	3.2	4.3
CNc1nc(-c2ccc3c(N)n[nH]c3c2)cc(N2C[C@@H](C(=O)NC3CCCCC3)CC[C@H]2C)n1	0	0	1.5	0	0.4	1.8	0	0
Nc1nc(F)nc2c1ncn2[C@@H]1O[C@H](CO)[C@@H](O)[C@@H]1O [Fludarabine]	3.1	0	1.1	0	0	1.4	0.6	4.7
CC/C(=C(\c1ccc(O)cc1)c1ccc(OCCN(C)C)cc1)c1ccccc1 [4-hydroxytamoxifen]	7.8	7.9	4.5	0	3.9	6.6	7.4	2.8
CC(=O)O[C@]1(C(C)=O)CC[C@H]2[C@@H]3C=C(C)C4=CC(=O)CC[C@]4(C)[C@H]3CC[C@@]21C [Megestrol acetate]	0	0	0	0	0	0	1	0
NC(=S)N/N=C/c1ncccc1N [Triapine]	3.2	0	2.5	1.9	5.3	0.4	0.6	0
CC(C)Oc1ccc(C(=O)N[C@H](CNC(=O)CN(C)C)Cc2ccc(-c3cn4cccc([C@H](C)O)c4n3)cc2)cc1Cl	4.7	9.5	5.3	19.2	13.7	7.3	6.3	13.5
CCN1CCN(c2ccc(Nc3cc(N(C)C(=O)Nc4c(Cl)c(OC)cc(OC)c4Cl)ncn3)cc2)CC1 [Infigratinib]	0	0	0	0	0	0	0	0
COc1ccc(S(=O)(=O)Nc2cccnc2Nc2ccc(O)cc2)cc1 [ABT-751]	9.2	8.9	5.7	11	10.3	4	5.7	9
CC(=O)O[C@@]12CO[C@@H]1C[C@H](O)[C@@]1(C)C(=O)[C@H](O)C3=C(C)[C@@H](OC(=O)[C@H](O)[C@@H](NC(=O)OC(C)(C)C)c4ccccc4)C[C@@](O)([C@@H](OC(=O)c4ccccc4)[C@H]21)C3(C)C [Docetaxel]	14.7	20.7	12.7	28.8	25.1	6.5	10.9	16.4
O=C(O)CC1CC(c2ccccc2)=NO1 (stereo unspecified) [VGX-1027]	0	0	0	0	0	0	0	0
Cc1noc2c1-c1ccccc1C(c1ccc(Cl)cc1)=N[C@H]2CC(N)=O [CPI-0610]	0	0	2.8	3.8	6.6	5.2	4.8	1
CN(C)C(=O)c1ccc(S(=O)(=O)c2ccc(NC(=O)[C@@](C)(O)C(F)(F)F)c(Cl)c2)cc1 [AZD7545]	0	1.1	0	2.2	0	0	0	0
CCNCCS(=O)(=O)NC[C@@]1(c2ccccc2)SC(NC(=O)C(C)(C)C)=NN1C(=O)C(C)(C)C [Litronesib]	10.2	23.7	2.2	18.8	18.9	2.4	8.6	13.1
Cc1c(C(=O)Nc2ccc(N3C[C@@H](C)O[C@@H](C)C3)nc2)cccc1-c1ccc(OC(F)(F)F)cc1 [Sonidegib]	0.1	2.5	0	4.1	0.2	1.5	4.1	0

SMILES	drug sensitivity score (FM-MEL-6)	drug sensitivity score (WM852)	drug sensitivity score (SK-MEL-28)	drug sensitivity score (Bowes)	drug sensitivity score (WM165)	drug sensitivity score (FM-MEL-2)	drug sensitivity score (FM-MEL-3)	drug sensitivity score (SK-MEL-2)
CNC(=O)c1ccc(C)c(-n2c(C)cc(OCc3ccc(F)cc3F)c(Br)c2=O)c1	0	0	0	0	0	0	0	0
CC1(C)CNc2cc(NC(=O)c3cccnc3NCc3ccncc3)ccc21 [Motesanib]	0	0	0	0	0	0	0	0
CN1CCC(COc2cnc(-c3cccc(Cn4nc(-c5cccc(C#N)c5)ccc4=O)c3)nc2)CC1 [Tepotinib]	0	0	0	0	0	0	0	0
CN(C)C(=N)NC(=N)N [Metformin]	0	0	0	0	0	0	0	0
COC(=O)c1ccc2c(c1)[nH]c1ncnc(NCCCN3CCCCC3)c12 [UM729]	0	0	0.6	0	0	1	2.5	0
CC(C)c1cc(C(=O)N2Cc3ccc(CN4CCN(C)CC4)cc3C2)c(O)cc1O [Onalespib]	4.2	5.7	6.9	13.3	15	7.1	14.2	8
CN(C)C[C@@H]1CCn2cc(c3ccccc32)C2=C(C(=O)NC2=O)c2cn(c3ccccc23)CCO1 [Ruboxistaurin]	7.6	6.7	9	4.5	8.6	7.2	6.5	4.7
Cc1cc([C@@H](C)Nc2ccccc2C(=O)O)c2nc(N3CCOCC3)cc(=O)n2c1 [AZD-6482]	1.4	0.4	3.3	1.2	0.5	1.9	1.7	0
CC(C)N(CCCNC(=O)Nc1ccc(C(C)(C)C)cc1)C[C@H]1O[C@@H](n2cc(Br)c3c(N)ncnc32)[C@H](O)[C@@H]1O [SGC0946]	0.8	2	0	0	0	1.4	6.1	0
Nc1nc2[nH]cnc2c(=S)[nH]1 [Thioguanine]	2.6	6.8	4.3	8.5	12.8	5.4	0	3.5
CC(=O)c1c(C)c2cnc(Nc3ccc(N4CCNCC4)cn3)nc2n(C2CCCC2)c1=O [Palbociclib]	4.2	3.1	6.3	4.6	5.8	3.8	2.3	0.7
O=C(NC[C@H](O)CN1CCc2ccccc2C1)c1cc(NC2COC2)ncn1	0.5	0	0.3	4.7	0	0.4	1.4	0
O=C(CCCCCCC(=O)Nc1ccc([C@H]2O[C@@H](CSc3nc(-c4ccccc4)c(-c4ccccc4)o3)C[C@@H](c3ccc(CO)cc3)O2)cc1)NO [Tubacin]	0.2	3.9	0	4.9	4.7	0.9	0	0.8
N#Cc1ccc2[nH]c(O)c(-c3ccc(CN4CCOCC4)cn3)c2c1 [AZD-1080]	0	0.6	0	0	2.2	0	0	0
CC/C(=C(\c1ccccc1)c1ccc(OCCN(C)C)cc1)c1ccccc1 [Tamoxifen]	4.4	2.3	2.4	0	3.8	3.7	5.6	0
C[C@@H]1C[C@H]2[C@@H]3CCC4=CC(=O)C=C[C@]4(C)[C@@]3(F)[C@@H](O)C[C@]2(C)[C@@]1(O)C(=O)CO [Dexamethasone]	0	0	0	0	0	0	0	0
CCOc1ccccc1-n1c(C(C)N2CCN(C(=O)COc3ccc(Cl)cc3)CC2)nc2ccccc2c1=O (stereo unspecified) [Erastin]	0	12	0	6.2	10.8	7.6	5.8	1.3
Cn1cc(C[C@@H](N)C(=O)O)c2ccccc21 [1-methyl-D-tryptophan]	0.6	0	0	0	0	0	0	0
Cn1c(Nc2ccc(C(F)(F)F)cc2)nc2cc(Oc3ccnc(-c4ncc(C(F)(F)F)[nH]4)c3)ccc21 [NVP-RAF265]	2	0	2.7	0.1	8.2	5.5	9.2	2.6
N#Cc1ccc(C(c2ccc(C#N)cc2)n2cncn2)cc1 [Letrozole]	0	0	0	0	0	0	0	0
CC(C)NC[C@@H](C(=O)N1CCN(c2ncnc3c2[C@H](C)C[C@H]3O)CC1)c1ccc(Cl)cc1 [Ipatasertib]	0.9	0	1.7	0	2.2	2.1	0.3	0
